A short description of test [1]: Reaction kinetics of tetrazines with TCO (stopped-flow, pseudo-first-order). The test is classed as physicochemical. The note with it: Second order rate constants with TCO at 37° C. in PBS. On the procedure:
Reaction kinetics of tetrazines with standard TCO were determined using pseudo-first-order measurements with an excess of the TCO compound in PBS (pH=7.4) at 37.0±0.1° C. following the decrease of tetrazine absorbance at 535 nm. Measurements were performed in triplicates using an SX20 stopped-flow photometer (Applied Photophysics, UK) equipped with a 535 nm LED light source. Data analysis was performed using Prism 6 (Graphpad) to determine the observed rate constants which were converted into secondorder rate constants through dividing by the TCO concentration.
Second-order rate constants for the reaction with TCO in PBS at 37° C. were determined by pseudo-first order measurements in a SX20 stopped flow photometer (Applied Photophysics).

A further test concerns CC49-TCO. Description: Ex vivo blocking assay: blocking of [111In]Tz-Tg binding to CC49-TCO in LS174T tumor xenografts. Details: species or system nude BALB/c mice. The note with it: change in tumor uptake of [111In]Tz-Tg 22 h p.i.; Tz administered 1 h prior; normalized to non-blocked control; mean from n = 3 mice/group. On the procedure:
FIG. 3 show a schematic display of the blocking assay. The blocking effect of non-radiolabeled Tz was determined as the change in tumor uptake of [111 1n]Tz-Tg 22 h p.i. Each Tz was administered 1 h prior to [111 1n]Tz-Tg and the uptake normalized to a group of animals were no blocking was performed (control).
The inventors have recently developed a blocking assay that allows to assess the in vivo ligation performance of unlabeled tetrazine derivatives. This assay omits time-consuming development of radiolabeled tetrazines for every ligand to be tested. In this assay, binding of [^111In]Tz-Tg (see structure in example 7), a literature described pretargeted imaging agent, is blocked in vivo to the pretargeting vector CC49-TCO (described in Stéen, J.; Jørgensen, J. T.; Christoph, D.; Battisti, U. M.; Nørregaard, K.; Edem, P.; Bratteby, K.; Shalgunov, V.; Martin, W.; Svatunek, D.; Poulie, C. B. M.; Hvass, L.; Simon, M.; Thomas, W.; Rossin, R.; Robillard, M.; Kristensen, J. L.; Mikula, H.; Kjaer, A.; Herth, M. Lipophilicity and Click Reactivity Determine the Performance of Bioorthogonal Tetrazine Tools in Pretargeted in Vivo Chemistry; 2020 Dec. 24, 2020.), which was administered 72 h prior. The blocking effect of the unlabeled tetrazine derivatives is afterwards quantified via an ex vivo biodistribution study and normalized to the binding of [^111In]Tz-Tg determined without any blocking.
All animal studies were approved by the Danish Animal Welfare Council, ministry of Justice. Five weeks old female nude BALB/c mice (Charles River, Sulzfeld, Germany) were allowed to acclimatize for one week with access to water and chow ad libitum. Human colon cancer cell line (LS174T; obtained from ATCC) was cultured in minimum essential medium (MEM) supplemented with 10% fetal bovine serum, 1% L-glutamine, 1% sodium pyruvate, 1% non-essential amino acids, and 1% penicillin-streptomycin at 37° C. and 5% CO2. Cells were harvested by trypsinization at a confluence of 70-90% and subcutaneous tumors were established in the left flank of the 6 weeks old animals by inoculation of 5×10^6 LS174T cells resuspended in sterile PBS (100 μL) and allowed to grow for 7-10 days. Tumors were measured using a caliper and the volume calculated using the formula volume=1/2 (length×width 2).
Tumor-bearing animals were matched in groups based on their tumor volume (tumor volumes of ˜100-300 mm^3, n=3 in each group) and were administered 100 μg/100 μL of CC49-TCO (100 μg/100 μL, ˜7 TCO/mAb) per mouse. After 3 days, animals were injected with non-radioactive Tz (10-20 nmol). After 1 h, they were administered with IniTz-Tg (˜13 MBq/100 μL, 1-2 nmol) via the tail vein. [^111In]Tz-Tg was obtained and radiolabeled as previously described in Borjesson, P. K.; Jauw, Y. W.; de Bree, R.; Roos, J. C.; Castelijns, J. A.; Leemans, C. R.; van Dongen, G. A.; Boellaard, R. Radiation dosimetry of 89 Zr-labeled chimeric monoclonal antibody U36 as used for immuno-PET in head and neck cancer patients. J Nucl Med 2009, 50, 1828-36. The mice were euthanized after 22 h and tumor, blood, heart, lung, liver, spleen, kidney, and muscle were resected. All tissues were weighted, and the radioactivity measured in a gamma counter (Wizard2, Perkin Elmer) and data was corrected for decay, tissue weight and injected amount of radioactivity. FIG. 3 illustrate the workflow of the blocking assay.

For the compound `O=C(O)CN(CC(=O)O)Cc1ccc(-c2nnc(-c3ccc(OCCF)cn3)nn2)nc1` [Tz-Tg, reference compound], in test [1], the Rate constant was determined as 73742 M⁻¹ s⁻¹. Moreover, the “Normalized Tumor blocking effect” value in the test on CC49-TCO is 99.
